In ChEMBL document CHEMBL1151757, “Synthesis, radiosynthesis, and biological evaluation of fluorine-18-labeled 2beta-carbo(fluoroalkoxy)-3beta-(3'-((Z)-2-haloethenyl)phenyl)nortropanes: candidate radioligands for in vivo imaging of the serotonin transporter with positron emission tomography” (J Med Chem, 2008):

Experiments:
[1] = Drug uptake in anesthetized cynomolgus monkey brain frontal lobe after 207.5 mins postinjection; assay type: ADME, organism-based, Macaca fascicularis; details: in vivo
[2] = Drug uptake in awake rhesus monkey occipital lobe after 115 mins postinjection; assay type: ADME, organism-based, Macaca mulatta; details: in vivo
[3] = Drug uptake in awake rhesus monkey putamen after 2.3 mins postinjection; assay type: ADME, organism-based, Macaca mulatta; details: in vivo, 138 s
[4] = Drug uptake in awake rhesus monkey brain medulla after 0.25 mins postinjection; assay type: ADME, organism-based, Macaca mulatta; details: in vivo, 15 s

O=C(OCCC[18F])C1C2CCC(CC1c1cccc(/C=C\Br)c1)N2 (centres undefined)
Drug uptake [1]: 2.03

O=C(OCC[18F])C1C2CCC(CC1c1ccc(/C=C\I)cc1)N2 (centres undefined)
Drug uptake [2]: 2.57 | Drug uptake [3]: 0.46

O=C(OCC[18F])C1C2CCC(CC1c1cccc(/C=C\I)c1)N2 (centres undefined)
Drug uptake [4]: 0
